Assay: G1T38-02: G1T38-related TEAEs by CTCAE grade; for G1T38-related TEAE: Alopecia: test concentration or dose not given here; for G1T38-related TEAE: Anaemia: test concentration or dose not given here; for G1T38-related TEAE: Blood bilirubin increased: test concentration or dose not given here; for G1T38-related TEAE: Blood creatinine increased: test concentration or dose not given here; for G1T38-related TEAE: Blood urea increased: test concentration or dose not given here; for G1T38-related TEAE: Diarrhoea: test concentration or dose not given here; for G1T38-related TEAE: Dry eye: test concentration or dose not given here; for G1T38-related TEAE: Dry mouth: test concentration or dose not given here; for G1T38-related TEAE: Haematuria: test concentration or dose not given here; for G1T38-related TEAE: Lacrimation increased: test concentration or dose not given here; for G1T38-related TEAE: Monocyte count decreased: test concentration or dose not given here; for G1T38-related TEAE: Nausea: test concentration or dose not given here; for G1T38-related TEAE: Neutropenia: test concentration or dose not given here; for G1T38-related TEAE: Platelet count decreased: test concentration or dose not given here; for G1T38-related TEAE: Stomatitis: test concentration or dose not given here; for G1T38-related TEAE: Thombocytopenia: test concentration or dose not given here
Type: in vivo, Humans
Conditions: for G1T38-related TEAE: Alopecia / G1T38-related TEAE: Anaemia / G1T38-related TEAE: Blood bilirubin increased / G1T38-related TEAE: Blood creatinine increased / G1T38-related TEAE: Blood lactate dehydrogenase increased / G1T38-related TEAE: Blood urea increased / G1T38-related TEAE: Diarrhoea / G1T38-related TEAE: Dry eye / G1T38-related TEAE: Dry mouth / G1T38-related TEAE: Haematuria / G1T38-related TEAE: Lacrimation increased / G1T38-related TEAE: Leukopenia / G1T38-related TEAE: Monocyte count decreased / G1T38-related TEAE: Nausea / G1T38-related TEAE: Neutropenia / G1T38-related TEAE: Neutrophil count deceased / G1T38-related TEAE: Platelet count decreased / G1T38-related TEAE: Stomatitis / G1T38-related TEAE: Thombocytopenia / G1T38-related TEAE: Vomiting / G1T38-related TEAE: White blood cell count decreased / Number (%) of patients with any G1T38-related TEAEs: N = 18

SMILES: CC(C)N1CCN(c2ccc(Nc3ncc4cc5n(c4n3)C3(CCCCC3)CNC5=O)nc2)CC1 [Compound IV]
- G1T38-related TEAE: Alopecia (Grade 1-2): 1 (5.6) n (%)
- G1T38-related TEAE: Anaemia (Grade 1-2): 6 (33.3) n (%)
- G1T38-related TEAE: Blood bilirubin increased (Grade 1-2): 1 (5.6) n (%)
- G1T38-related TEAE: Blood creatinine increased (Grade 1-2): 2 (11.1) n (%)
- G1T38-related TEAE: Blood lactate dehydrogenase increased (Grade 1-2): 1 (5.6) n (%)
- G1T38-related TEAE: Blood urea increased (Grade 1-2): 1 (5.6) n (%)
- G1T38-related TEAE: Diarrhoea (Grade 1-2): 5 (27.8) n (%)
- G1T38-related TEAE: Dry eye (Grade 1-2): 1 (5.6) n (%)
- G1T38-related TEAE: Dry mouth (Grade 1-2): 1 (5.6) n (%)
- G1T38-related TEAE: Haematuria (Grade 1-2): 3 (16.7) n (%)
- G1T38-related TEAE: Lacrimation increased (Grade 1-2): 1 (5.6) n (%)
- G1T38-related TEAE: Leukopenia (Grade 1-2): 1 (5.6) n (%)
- G1T38-related TEAE: Monocyte count decreased (Grade 1-2): 1 (5.6) n (%)
- G1T38-related TEAE: Nausea (Grade 1-2): 5 (27.8) n (%)
- G1T38-related TEAE: Neutropenia (Grade 1-2): 3 (16.7) n (%)
- G1T38-related TEAE: Neutrophil count deceased (Grade 1-2): 7 (38.9) n (%)
- G1T38-related TEAE: Platelet count decreased (Grade 1-2): 2 (11.1) n (%)
- G1T38-related TEAE: Stomatitis (Grade 1-2): 1 (5.6) n (%)
- G1T38-related TEAE: Thombocytopenia (Grade 1-2): 1 (5.6) n (%)
- G1T38-related TEAE: Vomiting (Grade 1-2): 3 (16.7) n (%)
- G1T38-related TEAE: White blood cell count decreased (Grade 1-2): 7 (38.9) n (%)
- Number (%) of patients with any G1T38-related TEAEs (Grade 1-2): 11 (61.1) n (%)
- G1T38-related TEAE: Alopecia (Grade 3): 0 n (%)
- G1T38-related TEAE: Anaemia (Grade 3): 0 n (%)
- G1T38-related TEAE: Blood bilirubin increased (Grade 3): 0 n (%)
- G1T38-related TEAE: Blood creatinine increased (Grade 3): 0 n (%)
- G1T38-related TEAE: Blood lactate dehydrogenase increased (Grade 3): 0 n (%)
- G1T38-related TEAE: Blood urea increased (Grade 3): 0 n (%)
- G1T38-related TEAE: Diarrhoea (Grade 3): 0 n (%)
- G1T38-related TEAE: Dry eye (Grade 3): 0 n (%)
- G1T38-related TEAE: Dry mouth (Grade 3): 0 n (%)
- G1T38-related TEAE: Haematuria (Grade 3): 0 n (%)
- G1T38-related TEAE: Lacrimation increased (Grade 3): 0 n (%)
- G1T38-related TEAE: Leukopenia (Grade 3): 0 n (%)
- G1T38-related TEAE: Monocyte count decreased (Grade 3): 0 n (%)
- G1T38-related TEAE: Nausea (Grade 3): 0 n (%)
- G1T38-related TEAE: Neutropenia (Grade 3): 1 (5.6) n (%)
- G1T38-related TEAE: Neutrophil count deceased (Grade 3): 2 (11.1) n (%)
- G1T38-related TEAE: Platelet count decreased (Grade 3): 0 n (%)
- G1T38-related TEAE: Stomatitis (Grade 3): 0 n (%)
- G1T38-related TEAE: Thombocytopenia (Grade 3): 0 n (%)
- G1T38-related TEAE: Vomiting (Grade 3): 0 n (%)
- G1T38-related TEAE: White blood cell count decreased (Grade 3): 0 n (%)
- Number (%) of patients with any G1T38-related TEAEs (Grade 3): 3 (16.7) n (%)
- G1T38-related TEAE: Alopecia (Grade 4): 0 n (%)
- G1T38-related TEAE: Anaemia (Grade 4): 0 n (%)
- G1T38-related TEAE: Blood bilirubin increased (Grade 4): 0 n (%)
- G1T38-related TEAE: Blood creatinine increased (Grade 4): 0 n (%)
- G1T38-related TEAE: Blood lactate dehydrogenase increased (Grade 4): 0 n (%)
- G1T38-related TEAE: Blood urea increased (Grade 4): 0 n (%)
- G1T38-related TEAE: Diarrhoea (Grade 4): 0 n (%)
- G1T38-related TEAE: Dry eye (Grade 4): 0 n (%)
- G1T38-related TEAE: Dry mouth (Grade 4): 0 n (%)
- G1T38-related TEAE: Haematuria (Grade 4): 0 n (%)
- G1T38-related TEAE: Lacrimation increased (Grade 4): 0 n (%)
- G1T38-related TEAE: Leukopenia (Grade 4): 0 n (%)
- G1T38-related TEAE: Monocyte count decreased (Grade 4): 0 n (%)
- G1T38-related TEAE: Nausea (Grade 4): 0 n (%)
- G1T38-related TEAE: Neutropenia (Grade 4): 1 (5.0) n (%)
- G1T38-related TEAE: Neutrophil count deceased (Grade 4): 0 n (%)
- G1T38-related TEAE: Platelet count decreased (Grade 4): 0 n (%)
- G1T38-related TEAE: Stomatitis (Grade 4): 0 n (%)
- G1T38-related TEAE: Thombocytopenia (Grade 4): 0 n (%)
- G1T38-related TEAE: Vomiting (Grade 4): 0 n (%)
- G1T38-related TEAE: White blood cell count decreased (Grade 4): 0 n (%)
- Number (%) of patients with any G1T38-related TEAEs (Grade 4): 1 (5.6) n (%)
- G1T38-related TEAE: Alopecia (Grade 5): 0 n (%)
- G1T38-related TEAE: Anaemia (Grade 5): 0 n (%)
- G1T38-related TEAE: Blood bilirubin increased (Grade 5): 0 n (%)
- G1T38-related TEAE: Blood creatinine increased (Grade 5): 0 n (%)
- G1T38-related TEAE: Blood lactate dehydrogenase increased (Grade 5): 0 n (%)
- G1T38-related TEAE: Blood urea increased (Grade 5): 0 n (%)
- G1T38-related TEAE: Diarrhoea (Grade 5): 0 n (%)
- G1T38-related TEAE: Dry eye (Grade 5): 0 n (%)
- G1T38-related TEAE: Dry mouth (Grade 5): 0 n (%)
- G1T38-related TEAE: Haematuria (Grade 5): 0 n (%)
- G1T38-related TEAE: Lacrimation increased (Grade 5): 0 n (%)
- G1T38-related TEAE: Leukopenia (Grade 5): 0 n (%)
- G1T38-related TEAE: Monocyte count decreased (Grade 5): 0 n (%)
- G1T38-related TEAE: Nausea (Grade 5): 0 n (%)
- G1T38-related TEAE: Neutropenia (Grade 5): 0 n (%)
- G1T38-related TEAE: Neutrophil count deceased (Grade 5): 0 n (%)
- G1T38-related TEAE: Platelet count decreased (Grade 5): 0 n (%)
- G1T38-related TEAE: Stomatitis (Grade 5): 0 n (%)
- G1T38-related TEAE: Thombocytopenia (Grade 5): 0 n (%)
- G1T38-related TEAE: Vomiting (Grade 5): 0 n (%)
- G1T38-related TEAE: White blood cell count decreased (Grade 5): 0 n (%)
- Number (%) of patients with any G1T38-related TEAEs (Grade 5): 0 n (%)
- G1T38-related TEAE: Alopecia (Overall): 1 (5.6) n (%)
- G1T38-related TEAE: Anaemia (Overall): 6 (33.3) n (%)
- G1T38-related TEAE: Blood bilirubin increased (Overall): 1 (5.6) n (%)
- G1T38-related TEAE: Blood creatinine increased (Overall): 2 (11.1) n (%)
- G1T38-related TEAE: Blood lactate dehydrogenase increased (Overall): 1 (5.6) n (%)
- G1T38-related TEAE: Blood urea increased (Overall): 1 (5.6) n (%)
- G1T38-related TEAE: Diarrhoea (Overall): 5 (27.8) n (%)
- G1T38-related TEAE: Dry eye (Overall): 1 (5.6) n (%)
- G1T38-related TEAE: Dry mouth (Overall): 1 (5.6) n (%)
- G1T38-related TEAE: Haematuria (Overall): 3 (16.7) n (%)
- G1T38-related TEAE: Lacrimation increased (Overall): 1 (5.6) n (%)
- G1T38-related TEAE: Leukopenia (Overall): 1 (5.6) n (%)
- G1T38-related TEAE: Monocyte count decreased (Overall): 1 (5.6) n (%)
- G1T38-related TEAE: Nausea (Overall): 5 (27.8) n (%)
- G1T38-related TEAE: Neutropenia (Overall): 5 (27.8) n (%)
- G1T38-related TEAE: Neutrophil count deceased (Overall): 9 (50.0) n (%)
- G1T38-related TEAE: Platelet count decreased (Overall): 2 (11.1) n (%)
- G1T38-related TEAE: Stomatitis (Overall): 1 (5.6) n (%)
- G1T38-related TEAE: Thombocytopenia (Overall): 1 (5.6) n (%)
- G1T38-related TEAE: Vomiting (Overall): 3 (16.7) n (%)
- G1T38-related TEAE: White blood cell count decreased (Overall): 7 (38.9) n (%)
- Number (%) of patients with any G1T38-related TEAEs (Overall): 15 (83.3) n (%)
- more severe EGFR-TKI-related AEs (nonclinical and clinical data to date (see Example 6)): none of the more severe EGFR-TKI-related AEs have been observed
